# Assay results taken from patent US12268702B2, “Antitumor pharmaceutical composition comprising azvudine and chemotherapeutic agent” (HENAN GENUINE BIOTECH CO., LTD., priority 2023, dated 2025).
# Several values for one entry are separate records, joined by “and”; a condition that tells them apart may be missing. Identical values can stand only once.
# Legend:
# Type in all cases: in vivo
# [1] = test system: Daudi xenograft tumor model; experiment: Human Burkitt's lymphoma cell Daudi subcutaneous xenograft tumor model; conditions: combination 1 + 50 mg/kg; for Tumor volume (mm^3) on the 27th day: CB 17 SCID mice, QD x 4 weeks, azvudine 1 mg/kg p.o., cyclophosphamide 50 mg/kg i.p.
# Description: Human Burkitt's lymphoma cells Daudi (Cat. No.: DSMZ-ACC129) were in vitro suspended and cultured in RPMI 1640 medium containing 10% fetal bovine serum, 2 mM glutamine, 100 U/mL penicillin and 100 μg/mL streptomycin, in a 37° C. and 5% CO2 incubator. When the cell saturation achieved 80%-90% and the cell number reached the requirement, the cells were collected, counted and inoculated.
# 0.2 mL (10×10^6) of Daudi cells (added with Matrigel at a volume ratio of 1:1) were subcutaneously inoculated on the right back of each mouse. The grouping administration was started when the average tumor volume reached about 100 mm^3.
# The changes of tumor volume and tumor weight in each group after administration of test drugs for treating CB 17 SCID mice with Daudi cell subcutaneous xenograft tumor are shown in Table 8 and Table 9 respectively.
# [2] = test system: MOLT4 xenograft tumor model; experiment: Human acute lymphoblastic leukemia MOLT4 cell subcutaneous xenograft tumor model; conditions: combination 1 + 50 mg/kg; for Tumor volume (mm^3) on the 28th day: SCID Beige mice, QD x 4 weeks, azvudine 2 mg/kg in Table 10, cyclophosphamide 50 mg/kg i.p.
# Description: Human acute lymphoblastic leukemia cells MOLT4 (Cat. No.: ECACC-85011413) were in vitro suspended and cultured in RPMI 1640 medium containing 10% fetal bovine serum, 100 U/mL penicillin and 100 μg/mL streptomycin, in a 37° C. and 5% CO2 incubator. When the cell saturation achieved 80%-90% and the cell number reached the requirement, the cells were collected, counted and inoculated.
# 0.2 mL (10×10^6) of MOLT4 cells (added with Matrigel at a volume ratio of 1:1) were subcutaneously inoculated on the right back of each mouse. The grouping administration was started when the average tumor volume reached about 148 mm^3.
# The changes of tumor volume and tumor weight in each group after administration of test drugs for treating SCID Beige mice with MOLT4 cell subcutaneous xenograft tumor are shown in Table 10 and Table 11.
# [3] = test system: OVCAR-8 human ovarian cancer model; experiment: OVCAR-8 human ovarian cancer subcutaneous xenograft tumor model; conditions: azvudine 1 mg/kg, paclitaxel 15 mg/kg, avastin 10 mg/kg, combinations 1 + 15 and 1 + 10 mg/kg; for T/C (%) / TGI (%) / Tumor volume (x ± S): 34th day after grouping; for average tumor volume: 34th day of administration
# Description: OVCAR-8 cells were cultured in RPMI1640 medium containing 10% fetal bovine serum. OVCAR-8 cells in the exponential growth phase were collected, resuspended in PBS to an appropriate concentration and mixed with Matrigel at a ratio of 1:1. The resulting mixture was used for subcutaneous inoculation of tumor in mice.
# 1×10^7 OVCAR-8 cells were inoculated subcutaneously on the right side of female mice. When the average tumor volume achieved 174.25 mm^3, the mice were randomly divided into groups according to tumor size.
# The experimental protocols for animal experiments in this experiment were reviewed and approved by the CrownBio IACUC committee. During the experiment, the animal experiments were performed in accordance with the requirements of AAALAC. After tumor inoculation was completed, the impact of tumor growth and treatment on normal behavior of animals was routinely monitored, specifically the activity of experimental animals, food intake and water intake, body weight gain or loss (body weight was measured twice a week), eye, hair and other abnormalities. The clinical symptoms observed during the experiment were recorded in the original data. The tumor volume was calculated according to the following formula: tumor volume (mm^3)=½×(a×b^2) (where a represents long diameter and b represents short diameter).
# Relative tumor proliferation rate, T/C %, refers to the percentage value of the relative tumor volume or tumor weight of the treatment group and the control group at a certain time point, which was calculated as follows: • T/C %=TRTV/CRTV×100% (TRTV: the average RTV of the treatment group; CRTV: the average RTV of the vehicle control group; RTV=Vt/V0, where V0 is the tumor volume of the animal when grouped, and Vt is the tumor volume of the animal after treatment); • or T/C %=TTW/CTW×100% (TTW: the average tumor weight of the treatment group at the end of the experiment; CTW: the average tumor weight of the vehicle control group at the end of the experiment).
# Relative tumor inhibition rate, TGI (%), was calculated according to the formula as follows: TGI %=(1−T/C)×100%. (T and C are the relative tumor volumes (RTV) or tumor weights (TW) of the treatment group and the control group at a specific time point).
# To compare tumor volumes of different treatment groups on a given day, first the assumption of homogeneity of variance among all groups was tested using the Bartlett test. When the p-value of Bartlett's test was not less than 0.05, whether all group means were equal was tested using one-way ANOVA. If the p-value of the one-way ANOVA was less than 0.05, pairwise comparisons among all groups were conducted using Tukey's HSD test, or pairwise comparisons between each treatment group and control group were conducted using Dunnett's t-test. When the p-value of Bartlett's test was less than 0.05, whether the medians of all groups were equal was tested using Kruskal Wallis test. If the p-value of the Kruskal Wallis test was less than 0.05, pairwise comparisons among all groups or between each treatment group and control group were conducted using Conover test, and the corresponding p-value correction was performed according to the number of groups in the multiple test.
# [4] = test system: Colo 205 human colon cancer model; experiment: Colo 205 human colon cancer subcutaneous xenograft tumor model
# Description: Experimental animals were 68 (48 plus 20 spare mice) BALB/c female nude mice, 7-8 weeks old (the age of mice at the time of tumor cell inoculation) and weighing 15.7-20.7 g, which were purchased from Beijing VitalRiver Experimental Animal Technology Co., Ltd. Breeding environment was SPF grade. The experimental animals were all kept in an independent ventilated box with constant temperature and humidity. The temperature of the breeding room was 20-26° C., the humidity was 40-70%. The breeding room was ventilated 10-20 times per hour. The alternating time of day and night was 12 h/12 h. The mice were continuously supplied with cobalt 60 radiation sterilized mouse complete pellet feed, and had free access to the feed. The mice drank tap water (available after sterilization with high-pressure steam), which was continuously supplied using a water-drinking bottle, and had free access to water. The mouse box was a polysulfone mouse box, which was used after sterilization under high pressure, with a size of 325 mm×210 mm×180 mm.
# Colo 205 cells were cultured in RPMI1640 medium containing 10% fetal bovine serum. Colo 205 cells in the exponential growth phase were collected, resuspended in PBS to an appropriate concentration and mixed with Matrigel at a ratio of 1:1. The resulting mixture was used for subcutaneous inoculation of tumor in mice. 5×10^6 Colo 205 cells were subcutaneously inoculated on the right side of female mice. The day of inoculation was defined as Day 0. When the average tumor volume reached 110.26 mm^3, the mice were randomly divided into groups according to tumor size.
# Relative tumor proliferation rate, T/C %, refers to the percentage value of the relative tumor volume or tumor weight of the treatment group and the control group at a certain time point, which was calculated as follows:
# T/C %=TRTV/CRTV×100% (TRTV: the average RTV of the treatment group; CRTV: the average RTV of the vehicle control group; RTV=Vt/V0, where V0 is the tumor volume of the animal when grouped, and Vt is the tumor volume of the animal after treatment); • or T/C %=TTW/CTW×100% (TTW: the average tumor weight of the treatment group at the end of the experiment; CTW: the average tumor weight of the vehicle control group at the end of the experiment). • Relative tumor inhibition rate, TGI (%), was calculated according to the formula as follows: TGI %=(1−T/C)×100%. (T and C are the relative tumor volumes (RTV) or tumor weights (TW) of the treatment group and the control group at a specific time point).
# [5] = test system: LoVo xenograft tumor model; experiment: LoVo human colon cancer subcutaneous xenograft tumor model; conditions: 21st day of administration, azvudine 1 mpk, capecitabine 400 mpk, combination 1 + 400 mpk; for Tumor volume (mm^3): BALB/c nude mice, p.o. QD x 3 weeks
# Description: Human colon cancer cells LoVo (Cat. No.: ECACC-87060101) were cultured in vitro as a monolayer in F12K medium containing 10% fetal bovine serum, 100 U/mL penicillin and 100 μg/mL streptomycin, in a 37° C. and 5% CO2 incubator. The cells were routinely digested with trypsin-EDTA and passaged twice a week. When the cell saturation reached 80%-90% and the cell number achieved the requirement, the cells were collected, counted and inoculated.
# 0.1 mL)(10×10^6) of LoVo cells were subcutaneously inoculated on the right back of each mouse. The grouping administration was started when the average tumor volume reached about 147 mm^3.
# The tumor volume changes and the tumor weight changes in each group (on the 21st day of administration) after administration of test drugs for treating BALB/c nude mice with Lovo cell subcutaneous xenograft tumor are shown in Table 5 and Table 6 respectively.
# [6] = based on tumor volume, 27th day, azvudine 1 mg/kg, cyclophosphamide 50 mg/kg
# [7] = based on tumor volume, 28th day, azvudine 2 mg/kg in Table 10, cyclophosphamide 50 mg/kg
# [8] = based on tumor volume, 25th day after inoculation, p.o. QD x 3 weeks, azvudine 1 mpk, capecitabine 400 mpk, combination 1 + 400 mpk
# [9] = based on tumor weight, azvudine 1 mpk, capecitabine 400 mpk, combination 1 + 400 mpk
compound,measurement,setting,value
"O=P1(N(CCCl)CCCl)NCCCO1 (centres unmarked) [Cyclophosphamide, cyclophosphamide]",Tumor volume (mm^3) on the 27th day,[1]; 27th day of administration,263 ± 54 mm^3
same,Tumor volume (mm^3) on the 27th day,"[1]; 27th day of administration, listed as cyclophosphamide",263 mm^3
same,Tumor weight (g) (On the 27th day),"[1]; 27th day of administration, azvudine 1 mg/kg, cyclophosphamide 50 mg/kg",0.343 ± 0.066 g
same,T/C (%),[1]; [6],8.83%
same,TGI (%),[1]; [6],94.17%
same,T/Cweight (%),"[1]; based on tumor weight, 27th day, azvudine 1 mg/kg, cyclophosphamide 50 mg/kg",11.49%
same,Tumor volume (mm^3) on the 28th day,[2]; 28th day of administration,716 ± 76 mm^3
same,Tumor volume (mm^3) on the 28th day,"[2]; 28th day of administration, listed as cyclophosphamide CTX",716 mm^3
same,Tumor weight (g) (On the 28th day),"[2]; 28th day of administration, azvudine 1 mg/kg, cyclophosphamide 50 mg/kg",0.822 ± 0.065 g
same,T/C (%),[2]; [7],24.53%
same,TGI (%),[2]; [7],79.34%
same,T/Cweight (%),"[2]; based on tumor weight, 28th day, azvudine 1 mg/kg, cyclophosphamide 50 mg/kg",27.65%
Avastin: positive drug avastin,T/C (%),[3],82.30%
same,TGI (%),[3],17.70%
same,Tumor volume (x ± S),[3],456.04 ± 110.65(6)
same,average tumor volume,[3],456.04 mm^3
"CCCCCOC(=O)Nc1nc(=O)n([C@@H]2O[C@H](C)[C@@H](O)[C@H]2O)cc1F [Capecitabine, capecitabine]",Tumor volume,"[4]; 25th day after inoculation (20th day after grouping), BALB/c nude mice, p.o. QD x 3 weeks, azvudine 1 mpk, capecitabine 400 mpk, combination 1 + 400 mpk",264.96 ± 38.65(6)
same,average tumor volume,"[4]; 25th day after tumor inoculation (20th day after grouping), azvudine 1 mg/kg, capecitabine 400 mg/kg, combination 1 + 400 mg/kg",264.96 mm^3
same,T/C (%),[4]; [8],18.07%
same,TGI (%),[4]; [8],81.93%
same,T/C (%),[4]; [9],85.92%
same,TGI,[4]; [9],14.08
same,Tumor weight (mg),"[4]; end of experiment, p.o. QD x 3 weeks, azvudine 1 mpk, capecitabine 400 mpk, combination 1 + 400 mpk",193.35 ± 28.54(6) mg
same,Tumor volume (mm^3),[5],919 ± 190 mm^3
same,Tumor volume (mm^3),[5]; listed as capecitabine,919 mm^3
same,Tumor weight,[5],0.893 ± 0.173 g
same,T/C (%),[5]; based on tumor volume,60.94%
same,TGI (%),[5]; based on tumor volume,42.11%
same,TGI (%),"[5]; based on tumor volume, listed as capecitabine",42.11% and 42.1%
same,T/C (%),[5]; based on tumor weight,63.27%
"CC(=O)O[C@H]1C(=O)[C@@]2(C)[C@H]([C@H](OC(=O)c3ccccc3)[C@]3(O)C[C@H](OC(=O)[C@H](O)[C@@H](NC(=O)c4ccccc4)c4ccccc4)C(C)=C1C3(C)C)[C@]1(OC(C)=O)CO[C@@H]1C[C@@H]2O [Paclitaxel, paclitaxel]",T/C (%),[3],73.51%
same,TGI (%),[3],26.49%
same,Tumor volume (x ± S),[3],403.40 ± 69.43(6)
same,TGI (%),[3]; listed as paclitaxel,26.49% and 26.5%
same,average tumor volume,[3],403.40 mm^3
